The results in this text go back to US9822058B2 (CHDI FOUNDATION, INC., priority 2012, dated 2017).

The assay has as its target T1, KMO mouse enzyme (Mus musculus, UniProt Q91WN4).
T1 construct: KMO enzyme prepared at Evotec from mouse liver (4-6 weeks old) via mitochondria isolation; from tissue; host or cells: mouse liver (4-6 weeks old), isolated mitochondria, prepared at Evotec
The assay can be described thus: KMO mouse enzyme assay: L-Kynurenine hydroxylation to 3-Hydroxy-Kynurenine by LC/MS (protocols substantially similar to Example 33). It counts as biochemical. How it is done: A method of monitoring L-Kynurenine (KYN) hydroxylation to form 3-Hydroxy-Kynurenine (3OH-KYN) by LC/MS is described. Product is quantified by multiple reaction monitoring (MRM method). […]
Using the assay protocols substantially similar to those of Example 33, the following compounds were tested.

[1] abbreviates: compound at 30 µM, KMO enzyme from mouse liver mitochondria, 100 μM L-Kynurenine, 40 min at RT.

The structures appear in SMILES notation.

Broadly, the inhibition is the drop in the measured response relative to a control, in per cent. By % Inhibition is commonly meant the relative decrease from the control value, in per cent.

T1 sequence (Q91WN4 whole entry): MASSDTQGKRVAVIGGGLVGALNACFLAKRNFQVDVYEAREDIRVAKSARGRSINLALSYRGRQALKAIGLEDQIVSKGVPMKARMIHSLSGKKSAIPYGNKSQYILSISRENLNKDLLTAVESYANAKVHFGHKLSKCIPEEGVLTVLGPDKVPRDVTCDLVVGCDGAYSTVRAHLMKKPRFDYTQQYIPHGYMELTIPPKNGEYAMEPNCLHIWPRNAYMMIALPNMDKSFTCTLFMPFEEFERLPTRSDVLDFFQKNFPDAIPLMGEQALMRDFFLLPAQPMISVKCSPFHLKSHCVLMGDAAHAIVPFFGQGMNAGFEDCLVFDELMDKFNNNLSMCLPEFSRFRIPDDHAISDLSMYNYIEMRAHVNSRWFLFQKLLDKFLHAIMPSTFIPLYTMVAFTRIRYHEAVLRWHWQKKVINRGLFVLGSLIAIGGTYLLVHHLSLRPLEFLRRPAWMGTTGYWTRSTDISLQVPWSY

`C[C@]1(C(=O)O)C[C@@H]1C(=O)c1ccc(Cl)c(Cl)c1` [(1S,2S)-2-(3,4-dichlorobenzoyl)-1-methylcyclopropane-1-carboxylic acid]: under setting [1], the inhibition at 30 µM came to 98.6%.
On the same count and under the same terms, then `CCOC(=O)OC(C)OC(=O)[C@H]1C[C@@H]1C(=O)c1ccc(Cl)c(Cl)c1` (stereo partly drawn) [1-[(Ethoxycarbonyl)oxy]ethyl (1S,2S)-2-[(3,4-dichlorophenyl)carbonyl]cyclopropane-1-carboxylate], with 102%; and `CC(C)(C)C(=O)OCOC(=O)[C@H]1C[C@@H]1C(=O)c1ccc(Cl)c(Cl)c1` [{[(1S,2S)-2-[(3,4-dichlorophenyl)carbonyl]cyclopropyl]carbonyloxy}methyl 2,2-dimethylpropanoate], with 102%.
Same read-out and setting: as for `O=C(O)[C@H]1C[C@@H]1C(=O)c1ccc(F)c(F)c1` [(1S,2S)-2-[(3,4-Difluorophenyl)carbonyl]cyclopropane-1-carboxylic acid], the figure is 88%; as for `CC(C)OC(=O)OC(C)OC(=O)[C@H]1C[C@@H]1C(=O)c1ccc(Cl)c(Cl)c1` (stereo partly drawn) [1-{[(Propan-2-yloxy)carbonyl]oxy}ethyl (1S,2S)-2-[(3,4-dichlorophenyl)carbonyl]cyclopropane-1-carboxylate], 103%.
Same read-out and setting: as for `O=C(c1ccc(Cl)c(Cl)c1)[C@H]1C[C@@H]1c1nnn[nH]1` [5-[(1S,2S)-2-[(3,4-Dichlorophenyl)carbonyl]cyclopropyl]-1H-1,2,3,4-tetrazole], the figure is 101%; as for `CC(C)(C)c1ccc(OC(=O)[C@H]2C[C@@H]2C(=O)c2ccc(Cl)c(Cl)c2)cc1` [4-tert-Butylphenyl (1S,2S)-2-[(3,4-dichlorophenyl)carbonyl]cyclopropane-1-carboxylate], 101%.
With `N[C@@H](CCCCNC(=O)[C@H]1C[C@@H]1C(=O)c1ccc(Cl)c(Cl)c1)C(=O)O` [(2S)-2-Amino-6-{[(1S,2S)-2-[(3,4-dichlorophenyl)carbonyl]cyclopropyl]formamide}hexanoic acid], the “% Inhibition at 30 µM” value under setting [1] came to 98%.
In the case of `CC(OC(=O)[C@H]1C[C@@H]1C(=O)c1ccc(Cl)c(Cl)c1)OC(=O)[C@H]1C[C@@H]1C(=O)c1ccc(Cl)c(Cl)c1` [1-{[(1S,2S)-2-[(3,4-dichlorophenyl)carbonyl]cyclopropyl]carbonyloxy}ethyl (1S,2S)-2-[(3,4-dichlorophenyl)carbonyl]cyclopropane-1-carboxylate], the inhibition at 30 µM under setting [1] was 98%.
On the same count and under the same terms, then `O=C(O)[C@H]1N[C@@H]1C(=O)c1ccc(Cl)c(Cl)c1` [(2S,3S)-3-[(3,4-Dichlorophenyl)carbonyl]aziridine-2-carboxylic acid], with 101%; and `O=C1CN(C(=O)[C@H]2C[C@@H]2C(=O)c2ccc(Cl)c(Cl)c2)CCN1` [4-{[(1S,2S)-2-[(3,4-Dichlorophenyl)carbonyl]cyclopropyl]carbonyl}piperazin-2-one], with 33%; and `CC(=O)OC(C)OC(=O)[C@H]1C[C@@H]1C(=O)c1ccc(Cl)c(Cl)c1` (stereo partly drawn) [1-{[(1S,2S)-2-[(3,4-Dichlorophenyl)carbonyl]cyclopropyl]carbonyloxy}ethyl acetate], with 103%.
The same measure, in the same setting: as for `O=C(O)[C@H]1C[C@@H]1C(=O)c1cccc(Cl)c1` [(1S,2S)-2-[(3-Chlorophenyl)carbonyl]cyclopropane-1-carboxylic acid], the figure is 105%.
For the molecule `CC(C)Oc1ccc(C(=O)[C@H]2C[C@@H]2C(=O)[O-])cc1Cl.[Na+]` [Sodium (1S,2S)-2-{[3-chloro-4-(propan-2-yloxy)phenyl]carbonyl}cyclopropane-1-carboxylate], the “% Inhibition at 30 µM” value under setting [1] turned out to be 102%.
As to `CC(C)OC(=O)[C@H]1C[C@@H]1C(=O)c1ccc(Cl)c(Cl)c1` [Propan-2-yl (1S,2S)-2-[(3,4-dichlorophenyl)carbonyl]cyclopropane-1-carboxylate], under setting [1], the inhibition at 30 µM is 101%.
On the same count and under the same terms, then `CC1(C)[C@@H](C(=O)O)[C@@H]1C(=O)c1ccc(Cl)c(Cl)c1` [(1S,3S)-3-(3,4-dichlorobenzoyl)-2,2-dimethylcyclopropane-1-carboxylic acid], with 15.4%.
For `C[C@H]1[C@@H](C(=O)O)[C@@H]1C(=O)c1ccc(Cl)c(Cl)c1` (single isomer, unassigned), the inhibition at 30 µM under setting [1] was 101%.
`O=C(Nc1ccccc1)[C@H]1C[C@@H]1C(=O)c1ccc(Cl)c(Cl)c1` [(1S,2S)-2-[(3,4-Dichlorophenyl)carbonyl]-N-phenylcyclopropane-1-carboxamide]: the inhibition at 30 µM under setting [1] came to 86%.
Same read-out and setting: then `O=C(O)[C@H]1C[C@@H]1C(=O)c1ccc(Cl)c(Cl)c1` [(1S,2S)-2-[(3,4-Dichlorophenyl)carbonyl]cyclopropane-1-carboxylic acid], with 106%.
On to `O=C(O)[C@H]1C[C@@H]1C(=O)c1ccc(OC2CC2)c(Cl)c1` [(1S,2S)-2-[(3-Chloro-4-cyclopropoxyphenyl)carbonyl]cyclopropane-1-carboxylic acid], for which the inhibition at 30 µM under setting [1] amounted to 101%. Besides, the “% Inhibition at 30 µM” value (compound at 30 µM; KMO enzyme from mouse liver mitochondria; 100 μM L-Kynurenine; 40 min at RT; listed as 1S,2S)-2-(3-chloro-4-cyclopropoxybenzoyl)cyclopropane-1-carboxylic acid) amounted to 100.5%.
Take `O=C(c1ccc(F)c(Cl)c1)[C@H]1C[C@@H]1c1noc(=O)[nH]1` [3-[(1S,2S)-2-[(3-Chloro-4-fluorophenyl)carbonyl]cyclopropyl]-4,5-dihydro-1,2,4-oxadiazol-5-one]: the inhibition at 30 µM under setting [1] worked out at 101%.
Still for that read-out and setting: then `N#C[C@H]1C[C@@H]1C(=O)c1ccc(Cl)c(Cl)c1` [(1S,2S)-2-[(3,4-Dichlorophenyl)carbonyl]cyclopropane-1-carbonitrile], with 68%.
As for `C[N+](C)(C)CC(CC(=O)O)OC(=O)[C@H]1C[C@@H]1C(=O)c1ccc(Cl)c(Cl)c1` (stereo partly drawn) [(3-Carboxy-2-{[(1S,2S)-2-[(3,4-dichlorophenyl)carbonyl]cyclopropyl]carbonyloxy}propyl)trimethylazanium], the “% Inhibition at 30 µM” value under setting [1] amounted to 99%.
For the molecule `O=C(c1ccc(Cl)c(Cl)c1)C1CC12CCOC2=O` (stereo not drawn) [1-[(3,4-dichlorophenyl)carbonyl]-5-oxaspiro[2.4]heptan-4-one], under setting [1], the inhibition at 30 µM amounted to 38%.
As to `O=C([O-])[C@H]1C[C@@H]1C(=O)c1ccc(C(F)(F)F)c(Cl)c1.[Na+]` [Sodium (1S,2S)-2-{[3-chloro-4-(trifluoromethyl)phenyl]carbonyl}cyclopropane-1-carboxylate], the “% Inhibition at 30 µM” value under setting [1] came out at 102%.
Take `CCCCOC(=O)[C@H]1C[C@@H]1C(=O)c1ccc(Cl)c(Cl)c1` [Butyl (1S,2S)-2-[(3,4-Dichlorophenyl)carbonyl]cyclopropane-1-carboxylate]: the inhibition at 30 µM under setting [1] was 101%.
For `O=C(c1ccc(Cl)c(Cl)c1)[C@H]1C[C@@H]1c1noc(=O)[nH]1` [3-[(1S,2S)-2-[(3,4-Dichlorophenyl)carbonyl]cyclopropyl]-4,5-dihydro-1,2,4-oxadiazol-5-one], the inhibition at 30 µM under setting [1] came out at 101%.
For `CC(C)COC(=O)[C@H]1C[C@@H]1C(=O)c1ccc(Cl)c(Cl)c1` [2-Methylpropyl (1S,2S)-2-[(3,4-dichlorophenyl)carbonyl]cyclopropane-1-carboxylate], the inhibition at 30 µM under setting [1] is 101%.
`C[C@@H]1[C@H](C(=O)O)[C@H]1C(=O)c1ccc(Cl)c(Cl)c1` (single isomer, unassigned): the inhibition at 30 µM under setting [1] is 52.5%.
The same measure, in the same setting: as for `O=C(O)[C@H]1C[C@@H]1C(=O)c1ccc(F)c(Cl)c1` [Sodium (1S,2S)-2-[(3-chloro-4-fluorophenyl)carbonyl]cyclopropane-1-carboxylate], the figure is 102%; as for `O=C(O)[C@H]1C[C@@H]1C(=O)c1ccc(C(F)(F)F)c(Cl)c1` [(1S,2S)-2-{[3-Chloro-4-(trifluoromethyl)phenyl]carbonyl}cyclopropane-1-carboxylic acid], 102%.
Turning to `COC(=O)[C@H]1C[C@@H]1C(=O)c1cc(Cl)cc(Cl)c1` [Methyl (1S,2S)-2-[(3,5-dichlorophenyl)carbonyl]cyclopropane-1-carboxylate], the inhibition at 30 µM under setting [1] is 104%.
For `Cc1ccc(C(=O)[C@H]2C[C@@H]2C(=O)[O-])cc1Cl.[Na+]` [Sodium (1S,2S)-2-[(3-chloro-4-methylphenyl)carbonyl]cyclopropane-1-carboxylate], the “% Inhibition at 30 µM” value under setting [1] worked out at 100%.
Regarding `C[C@H]1[C@H](C(=O)O)[C@H]1C(=O)c1ccc(Cl)c(Cl)c1` (single isomer, unassigned), under setting [1], the inhibition at 30 µM is 101%.
In the case of `Cc1ccc(C(=O)[C@H]2C[C@@H]2C(=O)O)cc1Cl` [(1S,2S)-2-[(3-Chloro-4-methylphenyl)carbonyl]cyclopropane-1-carboxylic acid], the inhibition at 30 µM under setting [1] turned out to be 100%.
`O=C(NCCO)[C@H]1C[C@@H]1C(=O)c1ccc(Cl)c(Cl)c1` [(1S,2S)-2-[(3,4-dichlorophenyl)carbonyl]-N-(2-hydroxyethyl)cyclopropane-1-carboxamide]: the inhibition at 30 µM under setting [1] was 94%.
Same read-out and setting: as for `CC1(C)[C@H](C(=O)O)[C@H]1C(=O)c1ccc(Cl)c(Cl)c1` [(1R,3R)-3-(3,4-dichlorobenzoyl)-2,2-dimethylcyclopropane-1-carboxylic acid], the figure is 54%; as for `O=C(c1ccc(F)c(Cl)c1)C1C[C@@H]1C(=O)O` (stereo partly drawn) [(1S)-2-[(3-Chloro-4-fluorophenyl)carbonyl]cyclopropane-1-carboxylic acid], 68%; as for `CCN(CC)CCOC(=O)[C@H]1C[C@@H]1C(=O)c1ccc(Cl)c(Cl)c1` [2-(Diethylamino)ethyl (1S,2S)-2-[(3,4-dichlorophenyl)carbonyl]cyclopropane-1-carboxylate], 102%.
The same measure, in the same setting: then `CC(C)Oc1ccc(C(=O)[C@H]2C[C@@H]2C(=O)O)cc1Cl` [(1S,2S)-2-{[3-Chloro-4-(propan-2-yloxy)phenyl]carbonyl}cyclopropane-1-carboxylic acid], with 98%; and `NC(=O)[C@H]1C[C@@H]1C(=O)c1ccc(OC2CC2)c(Cl)c1` [(1S,2S)-2-[(3-chloro-4-cyclopropoxyphenyl)carbonyl]cyclopropane-1-carboxamide], with 42%.
